# In patent publication US20100004333A1, “COMPOSITIONS AND METHODS FOR TREATING CARDIOVASCULAR DISORDERS” (priority 2004, published 2010):
# Marks after values point to notes of the source that are not given here.
# Tested on: apoE−/− mice
# Experiment: Histology of lesions: total cells, macrophages (F4/80), extra-cellular matrix (collagen) in apoE−/− mice
# Format: in vivo
# Details: for % ECM of total lesion area / % Mφ of total lesion area / ECM area / Lesion area (extra-cellular matrix series) / Lesion area (macrophage series) / Mφ area / Lesion area (total cell density series) / Total cells/μm^2 / Total number of cells: mean ± SD
# Excerpt: The materials and methods used were essentially as described under Example 1. In addition, for total cell numbers, nuclei were counted in hematoxylin and eosin-stained sections and expressed per lesion area. At the sinus, sections were taken ˜200 μm from the first appearance of the leaflets. Sections at the thoracic and abdominal aorta were taken at the branch point of the 3rd pair of intra-costal arteries and the celiac artery, respectively. For macrophages, 4 μm paraffin sections were deparaffinized, rehydrated and endogenous peroxidase quenched with 3% hydrogen peroxide (15 min). Enzymatic antigen retrieval was performed in trypsin (1 mg/mL) solutions pH 7.7 containing 4 mM CaCl2 and 200 mM Tris for 30 min at 37° C., followed by a 20 min incubation in 5% normal rabbit blocking serum. Sections were then incubated overnight in a humidified chamber and at 4° C. with monoclonal rat-anti-mouse F4/80 antibody (Caltag Laboratories; dilution 1:20), followed by biotinylated rabbit anti-rat IgG (Vector Laboratories; dilution 1:200, 30 min), Vectorstain Elite ABC reagent (Vectorstain Elite ABC Kit, Vector Laboratories; 30 min), and 3,3′-diaminobenzidine substrate-chromogen (Dako Corporation) with counterstaining using Harris hematoxylin. Images were captured using a Zeiss Axiophot Photomicroscope, and the area staining positive for F4/80 antigen expressed as a percentage of the total lesion area. Collagen was determined as described in Histochemical Journal 1979, 11:447-455. Briefly, 4 μm sections were deparaffinized, rehydrated and stained with 0.1% Sirius red (Fast red F3B) in saturated aqueous picric acid (pH 2.0) for 1 h at room temperature and then transferred to a solution of 0.01 N HCl for 2 min followed by counterstaining in Harris hematoxylin for 1 min. Total lesion area were measured from bright field images captured with an Olympus BX60 photomicroscope attached with a SPOT digital camera, whereas the birefringent area staining positive for Sirius red was detected using polarization microscopy and expressed as a percentage of the total lesion area at that site.
# [1] = descending aorta, versus control
smiles,measurement,setting,value
CC(C)(Sc1cc(C(C)(C)C)c(O)c(C(C)(C)C)c1)Sc1cc(C(C)(C)C)c(O)c(C(C)(C)C)c1 [probucol],% ECM of total lesion area,"Sinus, n = 6",66±13%
same,% Mφ of total lesion area,"Sinus, n = 6",14 ± 5^a %
same,ECM area,"Sinus, n = 6",577 ± 126^a μm^2 × 10^−3
same,Lesion area (extra-cellular matrix series),"Sinus, n = 6",878 ± 153^a μm^2 × 10^−3
same,Lesion area (macrophage series),"Sinus, n = 6",886 ± 89^a μm^2 × 10^−3
same,Mφ area,"Sinus, n = 6",127 ± 53 ^ μm^2 × 10^−3
same,% ECM of total lesion area,"Sinus, n = 6, listed as Probucol",66 ± 13^a %
same,Lesion area (total cell density series),"Sinus, n = 8",889 ± 254^a μm^2 × 10^−3
same,Total cells/μm^2,"Sinus, n = 8",1.7 ± 0.6^a cells/μm^2
same,Total number of cells,"Sinus, n = 8",1423 ± 441 ^
same,% ECM of total lesion area,"T/A, n = 6",0.0 ± 0.0^a %
same,% Mφ of total lesion area,"T/A, n = 6",99.4 ± 1.4 ^ %
same,ECM area,"T/A, n = 6",0.0 ± 0.0^a μm^2 × 10^−3
same,Lesion area (extra-cellular matrix series),"T/A, n = 6",13 ± 3^a μm^2 × 10^−3
same,Lesion area (macrophage series),"T/A, n = 6",22 ± 15^a μm^2 × 10^−3
same,Lesion area (total cell density series),"T/A, n = 6",22 ± 15^a μm^2 × 10^−3
same,Mφ area,"T/A, n = 6",21 ± 12^a μm^2 × 10^−3
same,Total cells/μm^2,"T/A, n = 6",0.36 ± 0.39^ cells/μm^2
same,Total number of cells,"T/A, n = 6",10 ± 13^a
same,Decrease in macrophages,[1],~91%
same,Decrease in total cell numbers,[1],~91%
same,Decrease in percentage of lesion area covered by macrophages,"sinus, versus control",~50%
